Reference: patent EP2487185A1, “Hexapeptide with improved activity in the repair of cellular DNA of dermal cells” (Clinuvel Pharmaceuticals Limited, priority 2011, dated 2012)
Non-standard residues stand in square brackets, D forms with d. Nle = CCCC[C@H](N)C(=O)O

What was measured:
Type in all cases: cell-based, human
melanocytes strain 1513c = assay: cAMP levels (125I radioimmunoassay), dose-response; settings: 45 min, 0.1 mM IBMX; for maximal level of cAMP: at 10 nM
Description: Dose-response experiments were carried out on three melanocytic strains, namely strains 1513c, 1505b and 105c melanocytes were treated with 1 pM-10 nM CUV9900 or NDP-MSH, or with 0.1-10 nM MSH for 45 minutes in the presence of 0.1 mM isobutyl methylxanthine (IBMX). The results obtained from strain 1513c are shown in Fig. 3, the results obtained from strain 1505b are shown in Fig. 5a and the results obtained from strain 105c are shown in Fig. 5b. The strains 1505b and 1513c were obtained from the same human adult while the strain 105c was obtained from another human adult. Cyclic AMP is the second messenger for the melanocortin-1 receptor, and assessment is usually performed indicating cellular activity reflective of melanogenesis. Cyclic AMP levels were determined using ^125I-labeled radioimmunoassay kit (Perkin Elmer, Waltham, MA), in human melanocytes that were treated with 0 (control), 0.1-10.0 nM α-MSH, or 0.001-10 nM NDP-MSH or 0.001-10.0 nM CUV 9900 for 45 min. in the presence of 0.1 mM IBMX, a phosphodiesterase inhibitor to prevent cAMP degradation. Triplicate wells were included in each group, and duplicate samples from each well were assayed for cAMP levels. Each data point is the mean percent of control of 6 determinations/group ±S.E.

melanocyte strain 1513c [1] = assay: Tyrosinase activity as a measure of stability / residual effect; settings: for Tyrosinase activity, column 3: 4 days after peptide removal
Description: To determine the residual effect of CUV9900, as compared to NDP-MSH and α-MSH, on tyrosinase activity, melanocytes were treated with either CUV9900 or NDP-MSH at the concentrations previously described for a total of 3 days. Tyrosinase activity was measured at the end of the 3 days of treatment, and 2 and 4 days after maintenance of the melanocytes in the complete absence of any treatment. With continued reference to Figs. 7, 8 and 9, to determine the stability of CUV9900 versus that of NDP-MSH and α-MSH, melanocytes were treated with 1 nM of each peptide, namely with CUV9900, NDP-MSH and α-MSH, for a total of 6 days, or with 1 nM peptides that were incubated for 5 hours at 37 °C prior to addition to the cultures, every other day, for a total of 6 days. Tyrosinase activity was measured at the end of treatment. In the experiments, cell number represents the mean percent of control of 3 determinations/ group ±SE, and tyrosinase activity data represent the mean percent of control of 6 determinations ±S.E. It should be noted that for the sake of reproducibility the experiment of strain 1513c of Fig. 9 was performed once more 6 months later than the experiment of Fig. 7. […] Melanocytes were treated for 3 days with the designated concentrations of CUV9900, NDP-MSH, or MSH, then maintained in absence of peptides for 4 days. Tyrosinase activity was determined 3 days after treatment. Comparison of stability of CUV9900, NDP-MSH and MSH was compared in 1513c, as shown in Fig. 7; the strain was treated for 6 days with 1 nM CUV9900, NDP-MSH or MSH with fresh medium and peptide replenished every 2 days. Melanocytes were treated according to the same experiment protocol but each peptide was incubated for 5-7 hours at 37 degrees Celsius. […] The assessment of tyrosinase was statistically different from control, as determined by ANOVA (p=<0.05).

melanocyte strain 1505b [2] = assay: as above; settings: for Tyrosinase activity, column 1 / Tyrosinase activity, column 2 / Tyrosinase activity, column 3 / Tyrosinase activity, Mean: STRAIN 1505b; for Tyrosinase activity, column 1: Table 6 (Fig. 8), after 3 days of treatment; for Tyrosinase activity, column 1 / Tyrosinase activity, column 2 / Tyrosinase activity, column 3: 1nM; for Tyrosinase activity, column 2 / Tyrosinase activity, column 3 / Tyrosinase activity, Mean: Table 6; for Tyrosinase activity, column 2: column 2, not defined; for Tyrosinase activity, column 3: column 3, apparently 4 days after peptide removal; for Tyrosinase activity, Mean: mean of columns 1-3
Description: To determine the residual effect of CUV9900, as compared to NDP-MSH and α-MSH, on tyrosinase activity, melanocytes were treated with either CUV9900 or NDP-MSH at the concentrations previously described for a total of 3 days. Tyrosinase activity was measured at the end of the 3 days of treatment, and 2 and 4 days after maintenance of the melanocytes in the complete absence of any treatment.
(§1) With continued reference to Figs. 7, 8 and 9, to determine the stability of CUV9900 versus that of NDP-MSH and α-MSH, melanocytes were treated with 1 nM of each peptide, namely with CUV9900, NDP-MSH and α-MSH, for a total of 6 days, or with 1 nM peptides that were incubated for 5 hours at 37 °C prior to addition to the cultures, every other day, for a total of 6 days. Tyrosinase activity was measured at the end of treatment. In the experiments, cell number represents the mean percent of control of 3 determinations/ group ±SE, and tyrosinase activity data represent the mean percent of control of 6 determinations ±S.E. It should be noted that for the sake of reproducibility the experiment of strain 1513c of Fig. 9 was performed once more 6 months later than the experiment of Fig. 7.
Melanocytes were treated for 3 days with the designated concentrations of CUV9900, NDP-MSH, or MSH, then maintained in absence of peptides for 4 days. Tyrosinase activity was determined 3 days after treatment.

melanocyte strain 1513c [3] = assay: Cell proliferation as a measure of stability; settings: for Cell proliferation, column 2: column 2, not defined; for Cell proliferation, Mean [1+2]: STRAIN 1513c, mean over experiments [1] and [2]
Description: as §1
Peptides were incubated at 37 degrees Celsius for 5 hours and then split into groups. Cell proliferation was a measure of stability, whereby the experiments on strain 1513c were divided in period 1 and 2 under standard conditions.

melanocyte strain 1505b [4] = assay: Cell proliferation as a measure of stability; settings: for Cell proliferation, column 2: Table 3, 1nM, column 2, not defined; for Cell proliferation, Mean: Table 3, mean of columns 1-3
melanocytic strain 1505b = assay: UV-induced generation of hydrogen peroxide (luminol luminescence); settings: for UV-induced hydrogen peroxide generation: strain 1505b, 105 mJ/cm^2 UV, 0, 30 and 45 minutes after UV
From the text: With reference to Figs. 10 and 11, melanocytes were irradiated with a bank of FS 20 lamps, with 75% emission in the UVB, and 25% emission in the UVA spectra, with peak emission at 313 nm wavelength. Any emission of UVC rays from the UV source (FS 20 lamps) was blocked by Kodacel filter. Prior to irradiation, the culture medium was replaced by PBS, which was removed after UV exposure, and fresh medium added.
Melanocytes were irradiated with 105 mJ/cm^2 UV, and treated immediately while in PBS with 0, 1 nM α-MSH or 1 nM CUV9900. Generation of hydrogen peroxide, representative of reactive oxygen species (ROS), was determined by measuring the luminescence of luminol at 0, 30, and 45 min after UV exposure. Triplicate dishes were included in each group, and duplicate samples from each dish were used for measurement of hydrogen peroxide at each time point. Each data point represents the mean of 6 determinations/group ±S.E.

[5] = STRAIN 1513c [1], Table 4 (Fig. 7), 1nM, after 3 days of treatment
[6] = STRAIN 1513c [1], Table 4, 1nM, column 2, apparently 2 days after removal of peptides
[7] = STRAIN 1513c [2], Table 5 (Fig. 9), 1 nM, 6 days, fresh peptide
[8] = STRAIN 1513c [2], Table 5, 1 nM, 6 days, peptide incubated 5-7 hours at 37 degrees Celsius
[9] = over the 2 experiments in strain 1513c
[10] = STRAIN 1513c [1], Table 1, mean of columns 1-3
[11] = STRAIN 1513c [2], Table 2, mean

Substance	maximal level of cAMP (melanocytes strain 1513c)	Tyrosinase activity, column 1 (melanocyte strain 1513c [1]; [5])	Tyrosinase activity, column 3 (melanocyte strain 1513c [1]; STRAIN 1513c [1], Table 4, 1nM)	Tyrosinase activity, column 2 (melanocyte strain 1513c [1]; [6])	Tyrosinase activity, column 1 (melanocyte strain 1513c [1]; [7])	Tyrosinase activity, column 2 (melanocyte strain 1513c [1]; [8])	Tyrosinase activity, Mean (melanocyte strain 1513c [1]; STRAIN 1513c [2], Table 5)	Tyrosinase activity, column 1 (melanocyte strain 1505b [2])	Tyrosinase activity, column 2 (melanocyte strain 1505b [2])	Tyrosinase activity, column 3 (melanocyte strain 1505b [2])	Tyrosinase activity, Mean (melanocyte strain 1505b [2])	Cell proliferation, column 2 (melanocyte strain 1513c [3]; STRAIN 1513c [1], Table 1, 1nM)	Cell proliferation, Mean (melanocyte strain 1513c [3]; [10])	Cell proliferation, column 2 (melanocyte strain 1513c [3]; STRAIN 1513c [2], Table 2)	Cell proliferation, Mean (melanocyte strain 1513c [3]; [11])	Cell proliferation, Mean [1+2] (melanocyte strain 1513c [3]; Table 2)	Cell proliferation, column 2 (melanocyte strain 1505b [4])	Cell proliferation, Mean (melanocyte strain 1505b [4])	UV-induced hydrogen peroxide generation (melanocytic strain 1505b; 1 nM)	also measured
Ac-Nle-Glu His-D-Phe-Arg-Trp-NH2 (Ac-[Nle]EH[dF]RW-NH2; SMILES CCCC[C@H](NC(C)=O)C(=O)N[C@@H](CCC(=O)O)C(=O)N[C@@H](Cc1c[nH]cn1)C(=O)N[C@H](Cc1ccccc1)C(=O)N[C@@H](CCCNC(=N)N)C(=O)N[C@@H](Cc1c[nH]c2ccccc12)C(N)=O) [CUV9900, hexapeptide, alpha-MSH analogue]	higher maximal level of cAMP than MSH	284 % of control	160 % of control	203 % of control	385.1 % of control	388.7 % of control	386.9 % of control	259 % of control	199 % of control	126 % of control	194.7 % of control	108 % of control	110.7 % of control	119.8 % of control	119.9 % of control	114.3 % of control	120 % of control	115.7 % of control	significant reduction of UV-induced hydrogen peroxide generation	cAMP, potency comparison (melanocytes strain 1513c; at 0.1 nM): more potent than NDP-MSH; superior stability over MSH (tyrosinase activity) (melanocyte strain 1513c [1]; [9]): 55.3%; superior stability over NDP (tyrosinase activity) (melanocyte strain 1513c [1]; [9]): 15.7%; effect of incubation of the peptide on stimulation of tyrosinase activity (melanocyte strain 1513c [1]; strain 1513c, 1 nM peptide incubated 5-7 hours at 37 degrees Celsius): no effect on its ability to stimulate tyrosinase activity; effect on tyrosinase activity after 3 days of treatment (melanocyte strain 1505b [2]; strain 1505b, 0.1 nM CUV9900, 1 nM MSH): 259 % of control; residual effects 4 days after peptide removal, comparison with MSH (melanocyte strain 1505b [2]; strain 1505b, 0.1 nM CUV9900 vs 1 nM MSH): equal; reducing the generation of hydrogen peroxide, comparison to NDP-MSH and MSH (melanocytic strain 1505b; at 45 minutes after UV): most effective at reducing the generation of hydrogen peroxide; hydrogen peroxide generation, comparison (melanocytic strain 1505b; at 45 minutes after irradiation, 1 nM, strain not given): lower hydrogen peroxide generation in comparison with both NDP-MSH and MSH
Ac-Ser-Tyr-Ser-Nle-Glu-His-D-Phe-Arg-Trp-Gly-Lys-Pro-Val-NH2 [NDP-MSH, reference compound]	higher maximal level of cAMP than MSH	302 % of control	164 % of control	203 % of control	329.9 % of control	229.2 % of control	279.6 % of control	175 % of control	155 % of control	115 % of control	148.3 % of control	115 % of control	112.7 % of control	117.5 % of control	115.0 % of control	113.6 % of control	105 % of control	105.0 % of control	significant reduction of UV-induced hydrogen peroxide generation	
